Laboratory results reported in PMC8849072, “Sudapyridine (WX-081), a Novel Compound against Mycobacterium tuberculosis” (Microbiology Spectrum, 2022).
Converted amounts (≈) assume the structure as drawn.

Legend:
[1] = Pharmacokinetic study in mice; type: in vivo, BALB/c mice; conditions: for half-life: plasma; for half-life / At 96 h lung/plasma: lung / At 96 h lung/plasma: plasma: Mice; for At 96 h lung/plasma: lung: lung exposure at 96 h (first number of the pair); for At 96 h lung/plasma: plasma: plasma exposure at 96 h (second number of the pair)
Method: (§1) The BALB/c mice, rats, and beagle dogs were used in the PK study and fasted overnight before dosing. Animal doses were administered in two ways. […] Plasma samples were collected from three animals at each time point. Plasma concentrations were determined by liquid chromatography-tandem mass spectrometry (LC-MS/MS). The bioanalytical method by LC-MS/MS for pharmacokinetic (PK) studies in animal and toxicokinetic (TK) in tox studies have been validated. The total area under the concentration-time curve (AUC0-inf), the elimination half-time (t1/2), the peak concentration (Cmax), and the time to reach peak concentration (Tmax) of samples were determined directly from the experimental data using WinNonlin V6.2.1.

[2] = 14-day repeated oral dose toxicity and toxicokinetic head-to-head study in beagle dogs; type: in vivo, beagle dog
M. tuberculosis H37Rv [3] = experiment: MBC determination (CFU-based); conditions: 7 days incubation, 3 log10 CFU decrease
[4] = system: M. tuberculosis susceptible strain 14286; experiment: MIC by microplate alamarBlue assay (MABA); type: cell-based, Mycobacterium tuberculosis; conditions: Mycobacterium tuberculosis
[5] = biological target: T1, human ether-á-go-go-related (hERG) ion channel (Homo sapiens, UniProt Q12809); experiment: hERG manual patch-clamp assay in hERG-CHO cell; type: cell-based; conditions: parent compound
T1 construct: expressed in transfected cells; host or cells: hERG-CHO cell (CHO cells expressing hERG)
T1 sequence (Q12809 whole entry): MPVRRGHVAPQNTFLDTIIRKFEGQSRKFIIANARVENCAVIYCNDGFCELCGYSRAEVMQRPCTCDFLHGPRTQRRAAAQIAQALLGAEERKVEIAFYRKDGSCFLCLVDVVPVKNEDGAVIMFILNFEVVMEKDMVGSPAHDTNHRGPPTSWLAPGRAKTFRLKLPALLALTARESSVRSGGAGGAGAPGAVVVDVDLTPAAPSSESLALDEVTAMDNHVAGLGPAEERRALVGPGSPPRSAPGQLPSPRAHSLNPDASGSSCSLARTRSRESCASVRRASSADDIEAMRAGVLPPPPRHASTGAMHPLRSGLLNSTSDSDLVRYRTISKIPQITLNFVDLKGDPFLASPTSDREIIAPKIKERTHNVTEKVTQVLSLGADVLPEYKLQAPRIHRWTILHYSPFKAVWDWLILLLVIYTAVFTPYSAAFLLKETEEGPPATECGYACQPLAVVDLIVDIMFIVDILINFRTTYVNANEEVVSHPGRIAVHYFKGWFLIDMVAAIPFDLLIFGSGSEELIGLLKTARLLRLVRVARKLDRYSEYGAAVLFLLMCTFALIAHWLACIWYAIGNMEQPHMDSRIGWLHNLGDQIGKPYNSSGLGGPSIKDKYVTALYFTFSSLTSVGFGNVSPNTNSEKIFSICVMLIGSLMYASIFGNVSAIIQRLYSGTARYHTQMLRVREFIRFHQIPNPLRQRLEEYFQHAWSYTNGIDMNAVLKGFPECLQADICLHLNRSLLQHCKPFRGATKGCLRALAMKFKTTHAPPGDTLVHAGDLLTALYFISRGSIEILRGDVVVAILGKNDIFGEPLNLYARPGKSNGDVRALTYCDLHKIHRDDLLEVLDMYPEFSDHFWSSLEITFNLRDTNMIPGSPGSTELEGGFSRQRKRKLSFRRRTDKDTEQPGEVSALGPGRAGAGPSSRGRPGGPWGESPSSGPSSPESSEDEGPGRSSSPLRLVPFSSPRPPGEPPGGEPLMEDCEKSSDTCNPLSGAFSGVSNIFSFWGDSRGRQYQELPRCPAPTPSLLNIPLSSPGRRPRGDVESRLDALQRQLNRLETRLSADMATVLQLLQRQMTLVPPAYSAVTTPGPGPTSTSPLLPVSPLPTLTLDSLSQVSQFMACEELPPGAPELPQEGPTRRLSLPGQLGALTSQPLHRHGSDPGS
Method: A human ether-á-go-go-related (hERG) ion channel in vitro assay was performed in Shanghai Institute of Materia Medica, Shanghai, for the evaluation of cardiac liability testing. The assay was a manual patch-clamp method using electrophysiology in an hERG-CHO cell.

[6] = system: M. tuberculosis susceptible strain 14241; experiment: MIC by microplate alamarBlue assay (MABA); type: cell-based, Mycobacterium tuberculosis; conditions: Mycobacterium tuberculosis
M. tuberculosis H37Rv [7] = type: in vivo, BALB/c mice
[8] = system: M. tuberculosis susceptible strain 14480; experiment: MIC by microplate alamarBlue assay (MABA); type: cell-based, Mycobacterium tuberculosis; conditions: Mycobacterium tuberculosis
[9] = system: M. tuberculosis susceptible strain 14242; experiment: MIC by microplate alamarBlue assay (MABA); type: cell-based, Mycobacterium tuberculosis; conditions: Mycobacterium tuberculosis
[10] = system: M. tuberculosis susceptible strain 14280; experiment: MIC by microplate alamarBlue assay (MABA); type: cell-based, Mycobacterium tuberculosis; conditions: Mycobacterium tuberculosis
[11] = system: M. tuberculosis susceptible strain 14242; experiment: MBC determination (CFU-based); conditions: 7 days incubation, 3 log10 CFU decrease
[12] = Pharmacokinetic study in beagle dogs; type: in vivo; conditions: dog; for AUC(0-inf): AUC0-inf; for half-life: plasma
Method: The BALB/c mice, rats, and beagle dogs were used in the PK study and fasted overnight before dosing. Animal doses were administered in two ways. One is oral administration, configured to form a 6.25 mg/kg WX-081, with 0.5% carboxymethylcellulose (CMC), the other is the WX-081 with an intravenous injection of 1.0 mg/kg (formulated in 40% hydroxypropyl-β-cyclodextrin and 50 mM citrate buffer at pH 3). Plasma samples were collected from three animals at each time point. Plasma concentrations were determined by liquid chromatography-tandem mass spectrometry (LC-MS/MS). The bioanalytical method by LC-MS/MS for pharmacokinetic (PK) studies in animal and toxicokinetic (TK) in tox studies have been validated. The total area under the concentration-time curve (AUC0-inf), the elimination half-time (t1/2), the peak concentration (Cmax), and the time to reach peak concentration (Tmax) of samples were determined directly from the experimental data using WinNonlin V6.2.1.

M. tuberculosis H37Rv [13] = experiment: MIC by microplate alamarBlue assay (MABA); type: cell-based, Mycobacterium tuberculosis; conditions: Mycobacterium tuberculosis, H37RV
[14] = Preliminary in vivo toxicity study in mice
Method: Before the in vivo activity test, a preliminary in vivo toxicity study was conducted. All mice tolerated WX-081 at the administered doses. No adverse events were found.

M. tuberculosis H37Rv [15] = type: in vivo, BALB/c mice; conditions: acute model
[16] = system: M. tuberculosis H37Rv and two clinical isolates (14619, 14242); experiment: Time-kill curve analysis; type: cell-based, Mycobacterium tuberculosis; conditions: up to 14 days culture
[17] = Pharmacokinetic study in rats; type: in vivo, rat; conditions: for At 96 h lung/plasma: lung / At 96 h lung/plasma: plasma / half-life: Rat; for At 96 h lung/plasma: lung: lung exposure at 96 h (first number of the pair); for At 96 h lung/plasma: plasma: plasma exposure at 96 h (second number of the pair); for half-life: plasma
Method: as §1

[18] = BALB/c, mouse, in vivo, iv, 1 mg/kg
[19] = BALB/c, mouse, in vivo, po, 6.25 mg/kg
[20] = beagle dogs, 200 mg/kg oral, 14 days

COc1ncc(-c2ccc(Cl)cc2)cc1[C@@H](c1ccccc1)[C@@](O)(CCN(C)C)c1cccc2ccccc12 [WX-081, sudapyridine]
AUC(0-inf) [1, 18]: 4800 ng·h/mL | AUC(0-t) [1, 18]: 3990 ng·h/mL | Vd [1, 18]: 10.4 L/kg | clearance [1, 18]: 3.59 mL/min/kg | AUC(0-inf) [1, 19]: 11900 ng·h/mL | AUC(0-t) [1, 19]: 10200 ng·h/mL | Cmax [1, 19]: 503 ng/mL | Tmax [1, 19]: 7.33 h | bioavailability [1, 19]: 40.7% | half-life ([1]; BALB/c, mouse, Iv. 1.0 mg/kg): 2780 min | half-life ([1]; BALB/c, mouse, Po. 6.25 mg/kg): 2630 min | At 96 h lung/plasma: lung ([1]; Iv. 1.0 mg/kg): 241 | At 96 h lung/plasma: plasma ([1]; Iv. 1.0 mg/kg): 12.4 | At 96 h lung/plasma: lung ([1]; Po. 6.25 mg/kg): 857 | At 96 h lung/plasma: plasma ([1]; Po. 6.25 mg/kg): 25.3 | mortality and moribundity ([2]; 200 mg/kg oral once daily, 14 days, male and female dogs): did not result in mortality and moribundity | ECG: HR [2, 20]: Slowing of the heart rate | ECG: QT interval [2, 20]: Physiologically appropriate lengthening of the QT interval | ECG: RR/PR interval [2, 20]: Lengthening of the RR interval | qualitative ECG changes associated with oral administration [2, 20]: no qualitative ECG changes | effects on blood pressure, heart rate, or qualitative ECG parameters ([2]; dog, in vivo): no adverse effects | cTnI ([2]; dog, in vivo, po, 200 mg/kg): no significant changes | MBCs (M. tuberculosis H37Rv [3]): 2.500 µg/mL | MIC [4]: 0.152 µg/mL (≈ 0.283 µM) | IC50 [5]: > 30 µM | MIC [6]: 0.117 µg/mL (≈ 0.218 µM) | reduction of CFU in the lungs compared with 15 mg/kg RFP (M. tuberculosis H37Rv [7]; chronic model, 5 mg/kg, 8-week treatment): superior | activity compared with BDQ (M. tuberculosis H37Rv [7]; chronic model, 5, 10, and 20 mg/kg orally, 8 weeks): slightly lower than BDQ, there was no significant difference in activity | lung CFU after 8 weeks of treatment (M. tuberculosis H37Rv [7]; chronic model, any dose (5, 10, 20 mg/kg)): declined | MIC [8]: 0.12 µg/mL (≈ 0.223 µM) | MIC [9]: 0.219 µg/mL (≈ 0.408 µM) | MIC [10]: 0.124 µg/mL (≈ 0.231 µM) | MBCs [11]: 0.313 µg/mL | AUC(0-t) ([12]; in vivo, iv, 0.5 mg/kg): 3610 ng·h/mL | Vd ([12]; in vivo, iv, 0.5 mg/kg): 6.04 L/kg | clearance ([12]; in vivo, iv, 0.5 mg/kg): 2.04 mL/min/kg | AUC(0-inf) ([12]; in vivo, iv, 0.5 mg/kg): 4250 ng·h/mL | AUC(0-t) ([12]; in vivo, po, 2 mg/kg): 8500 ng·h/mL | bioavailability ([12]; in vivo, po, 2 mg/kg): 58.9% | AUC(0-inf) ([12]; in vivo, po, 2 mg/kg): 9490 ng·h/mL | Cmax ([12]; in vivo, po, 2 mg/kg): 390 ng/mL | Tmax ([12]; in vivo, po, 2 mg/kg, Tmax): 4.67 h | AUC(0-t) ([12]; in vivo, po, 6 mg/kg): 20200 ng·h/mL | bioavailability ([12]; in vivo, po, 6 mg/kg): 46.6% | AUC(0-inf) ([12]; in vivo, po, 6 mg/kg): 22800 ng·h/mL | Cmax ([12]; in vivo, po, 6 mg/kg): 1080 ng/mL | Tmax ([12]; in vivo, po, 6 mg/kg, Tmax): 5.33 h | AUC(0-t) ([12]; in vivo, po, 20 mg/kg): 50400 ng·h/mL | bioavailability ([12]; in vivo, po, 20 mg/kg): 34.9% | Tmax ([12]; in vivo, po, 20 mg/kg, Tmax): 7.67 h | Tmax ([12]; in vivo, po, 20 mg/kg, time to peak concentration (Tmax)): 4.6 to 7.7 h | half-life ([12]; iv, 0.5 mg/kg, Dog, Iv. 0.5 mg/kg, read-out: t1/2 (converted)): 2.34 days | half-life ([12]; po, 2 mg/kg, Dog, Po. 2.0 mg/kg, read-out: t1/2 (converted)): 2.13 days | half-life ([12]; po, 6 mg/kg, Dog, Po. 6.0 mg/kg, read-out: t1/2 (converted)): 2.32 days | half-life ([12]; po, 20 mg/kg, Dog, Po. 20.0 mg/kg, read-out: t1/2 (converted)): 2.4 days | half-life ([12]; po, 20 mg/kg, beagle dogs, oral, range over doses of 2, 6, or 20 mg/kg, read-out: plasma half-life (t1/2)): 2.12 to 2.42 days | MIC (M. tuberculosis H37Rv [13]): 0.07 µg/mL (≈ 0.13 µM) | LD50 ([14]; mouse, in vivo, read-out: LD50 (dose that caused at least 50% of mice to die)): > 3000 mg/kg | tolerability at the administered doses ([14]; no adverse events were found): tolerated | reduction in CFU compared with BDQ at 10 mg/kg (M. tuberculosis H37Rv [15]; 10 mg/kg, P < 0.05): larger reduction in CFU than BDQ | activity compared with BDQ at the equivalent dose (M. tuberculosis H37Rv [15]; 20 mg/kg): no difference from that of BDQ | culturable organisms in mouse lungs (M. tuberculosis H37Rv [15]; daily 20 mg/kg monotherapy, 20 days): all culturable organisms’ clearance | concentration showing bactericidal effects in time-kill test [16]: ≥ 4 × MIC | At 96 h lung/plasma: lung ([17]; Iv. 1.0 mg/kg): 235 | At 96 h lung/plasma: plasma ([17]; Iv. 1.0 mg/kg): 3.61 | At 96 h lung/plasma: lung ([17]; Po. 5.0 mg/kg): 337 | At 96 h lung/plasma: plasma ([17]; Po. 5.0 mg/kg): 4.74 | half-life ([17]; Iv. 1.0 mg/kg): 1540 min | half-life ([17]; Po. 5.0 mg/kg): 1790 min | AUC(0-inf) ([17]; rat, in vivo, iv, 1 mg/kg): 2350 ng·h/mL | AUC(0-t) ([17]; rat, in vivo, iv, 1 mg/kg): 2220 ng·h/mL | Vd ([17]; rat, in vivo, iv, 1 mg/kg): 9.2 L/kg | clearance ([17]; rat, in vivo, iv, 1 mg/kg): 8.25 mL/min/kg | AUC(0-inf) ([17]; rat, in vivo, po, 5 mg/kg): 4310 ng·h/mL | AUC(0-t) ([17]; rat, in vivo, po, 5 mg/kg): 4080 ng·h/mL | Cmax ([17]; rat, in vivo, po, 5 mg/kg): 328 ng/mL | Tmax ([17]; rat, in vivo, po, 5 mg/kg): 1 h | bioavailability ([17]; rat, in vivo, po, 5 mg/kg): 36.7%
